We go through four compounds from patent publication US20090062370A1, “Method for increasing the speed of recovery and/or the speed of wound healing of injured animals” (priority 2005, published 2009).

One data set relates to wounded animals. The data set is described as follows: Feeding of wounded animals with supplemented feed (general description, daily intake titration). The class given is in vivo. An excerpt:
Phytohormones and beta-glucans appeared to work in a wide range of concentrations for improving the speed of wound healing in animals. The optimal concentrations may vary between different species, however, the skilled person will know how to obtain an optimal concentration for a given species, for instance by titration of the desired compound into the animal feed and testing when this would have the optimal effect. The following may serve as guidance in this process.
A skilled person will appreciate that the amount of free IAA in the ready to use feed has to be adjusted in order to supply the animal with an effective amount of free IAA. In order to adjust the free IAA concentration in the feed so that a certain daily intake of free IAA is achieved, an estimate has to be made of the feed intake of an animal or animal group. A skilled person is aware of the feed intake of a (particular kind or group of) animal(s), typically, the feed intake per day is between 0.5 and 10% of the body weight of the animal, with occasional exceptions as high as 20%. Elderly animals tend to eat less and are considered to have a feed intake per day between 0.1 and 5%, typically of 1% of their body mass.

The next data set has as its system fibroblasts. The conditions noted are these: cited from earlier work.
The next data set concerns humans. The conditions noted are these: single doses of 0.1 g/kg body weight; cited from earlier work.
For data set [1], the system named is koi fish suffering from wounds as a result of parasites. The data set is described as follows: Wound healing of koi fish in ponds fed fish feed according to the invention. The class given is in vivo. The conditions noted are these: scale 1 (very slow recovery) to 5 (very fast recovery). The text has this:
Four ponds of 40 cubic meters each, each containing 50 koi fish with an approximate total body weight of 50 kg were used to establish the effect of the fish feed according to the invention on wound healing. One pond (pond 1) served as a control were the fish were fed with control feed, the fish in the other ponds received a feed according to the invention as prepared in examples 6 to 8 above.
The fish in control pond were fed with 10 gram Cyprico White 3 mm floater feed per day, whereas the fish in the other ponds were fed with 10 gram of the feed as described in Example 2, 3 and 4 (Table 2). About 10% of all fish suffered from wounds as a result of parasites.
The veterinarian filled in a questionnaire on the recovery process of the fish, Table 3. Criterion was the speed of disappearance of the wounds. This criterion was scored on a scale ranging from 1 to 5 wherein 1 was very slow recovery and 5 very fast recovery. This criterion was scored 1, 2, 4, 7 and 21 days of feeding.

A further data set deals with surgical wound. The conditions noted are these: oral supplementation of 50 mg of zinc three times per day, as zinc sulfate; cited from earlier work.

Turning to 1.3 and 1.6 beta glucans, the “optimal daily intake (optimal results / optimum between cost and benefit)” value in the data set on wounded animals (in feed) is recorded as “around 5 mg/kglw/day”.
For the compound `C=C1C[C@]23C[C@@]1(O)CC[C@H]2[C@@]12C=C[C@H](O)[C@@](C)(C(=O)O1)[C@H]2[C@@H]3C(=O)O` [gibberellin, gibberellic acid], the “effect on the migration of fibroblasts in vitro” value with fibroblasts is “not”.
Turning to `O=C(O)Cc1c[nH]c2ccccc12` [free IAA, indole-3-acetic acid], in the data set with humans, the “toxicity of single doses” value is recorded as “non-toxic”. For the same compound, in the data set on fibroblasts, the “effect on the migration of fibroblasts in vitro” value is listed as “had an effect”. Further, in the data set with wounded animals (feed with 0.4 mg/kglw/day), the “effect on recovery of wounded animals” value is reported as “very effective”. Moreover, the Wound healing score is on record as 1 in data set [1] (1 day of feeding); 1 in data set [1] (2 days of feeding); 2 in data set [1] (4 days of feeding); 3 in data set [1] (7 days of feeding); 4 in data set [1] (21 days of feeding).
For the compound `O=S(=O)([O-])[O-].[Zn+2]` [zinc, zinc sulfate], the “reduction of healing time of a surgical wound” value in the data set with surgical wound is given as 43%.
